The values below are quoted from earlier work in US20080262061A1, “COMPOSITION AND USE OF A LIQUID FUNGICIDAL FORMULATION OF MYCLOBUTANIL OR TEBUCONAZOLE FUNGICIDE” (HELENA HOLDING COMPANY, priority 2007, published 2008).

Each structure is given as a SMILES string.

The conditions of this series: background statement.

As to `CC(C)(C)C(O)(CCc1ccc(Cl)cc1)Cn1cncn1` (racemic) [tebuconazole, (RS)-1-p-chlorophenyl-4,4-dimethyl-3-(1H-1,2,4-triazol-1-ylmethyl)═pentan-3-ol], the water solubility result is “not significantly water soluble”. Consider `CCCCC(C#N)(Cn1cncn1)c1ccc(Cl)cc1` (centres unmarked) [Myclobutanil, 2-p-chlorophenyl-2-(1H-1,2,4-triazol-1-ylmethyl)hexanenitrile], for which the water solubility entry is “not significantly water soluble”.
